Source: patent publication US20250002464A1, “NOVEL COMPOUND AND PHARMACEUTICAL COMPOSITION COMPRISING SAME” (SAPIENSBIO INC., priority 2021, published 2025)

Each compound was assayed on α-SMA (assay: α-SMA expression inhibitory ability in MRC5 cell line (Western blotting)). Settings: TGF-β1 (10 ng/mL), 72 hours, relative to TGF-β1 only.
Type: cell-based
Procedure: Subsequently, the inhibitory effect on pulmonary fibrosis of the compounds according to the present invention was overall evaluated. An MRC5 cell line was treated with each compound at 10 μM, and 2 hours later, treated with TGF-β1 (10 ng/mL). After 72 hours, the cells were lysed using RIPA Buffer, and then an α-SMA protein level was measured through Western blotting. The α-SMA expression level when treating the cells with each compound and TGF-β1 compared to the α-SMA expression level when treating the cells only with TGF-β1 without the compound was calculated as the α-SMA expression inhibitory ability of the corresponding compound. The α-SMA expression inhibitory ability of each compound is summarized in Table 2 below (A: inhibitory ability≥70%, B: 50%: inhibitory ability<70%, C: inhibitory ability<50%).
In the case of `CC(C(=O)N1CCN(c2ccc(F)cc2)c2cc(F)ccc21)N1CCCC1` (stereo not drawn) [Compound 51, 1-(6-fluoro-4-(4-fluorophenyl)-3,4-dihydroquinoxaline-1(2H)-yl)-2-(pyrrolidin-1-yl)propan-1-one], the inhibition at 10 µM was no less than 70%. Compound `CC(C(=O)N1CCN(c2ccc(F)cc2)c2cc(F)ccc21)N1CCN(C)CC1` (stereo not drawn) [Compound 52, 1-(6-fluoro-4-(4-fluorophenyl)-3,4-dihydroquinoxaline-1(2H)-yl)-2-(4-methylpiperazin-1-yl)propan-1-one] has an inhibition at 10 µM of less than 50%. `CC(C(=O)N1CCN(c2ccc(F)cc2)c2cc(F)ccc21)N1CCCCC1` (stereo not drawn) [Compound 53, 1-(6-fluoro-4-(4-fluorophenyl)-3,4-dihydroquinoxaline-1(2H)-yl)-2-(piperidin-1-yl)propan-1-one] gave an inhibition at 10 µM of less than 50%. `CC(C(=O)N1CCN(c2ccc(F)cc2)c2cc(F)ccc21)N1CCC[C@H]1C` (stereo partly drawn) [Compound 54, 1-(6-fluoro-4-(4-fluorophenyl)-3,4-dihydroquinoxaline-1(2H)-yl)-2-((R)-2-methylpyrrolidin-1-yl)propan-1-one] gave an inhibition at 10 µM of less than 50%. With `C[C@@H]1CCCN1CCC(=O)N1CCN(c2ccccc2)c2ccccc21` [Compound 57, (R)-3-(2-methylpyrrolidin-1-yl)-1-(4-phenyl-3,4-dihydroquinoxaline-1(2H)-yl)propan-1-one] the inhibition at 10 µM was less than 50%. With `O=C(CCN1CCCC(O)C1)N1CCN(c2ccccc2)c2ccccc21` (stereo not drawn) [Compound 58, 3-(3-hydroxypiperidin-1-yl)-1-(4-phenyl-3,4-dihydroquinoxaline-1(2H)-yl)propan-1-one] the inhibition at 10 µM was 50 to 70%. `CC(C(=O)N1CCN(c2ccccc2)c2ccccc21)N1CCCC1` (stereo not drawn) [Compound 61, 1-(4-phenyl-3,4-dihydroquinoxaline-1(2H)-yl)-2-(pyrrolidin-1-yl)propan-1-one] gave an inhibition at 10 µM of less than 50%. Work on `CC(C(=O)N1CCN(c2ccccc2)c2ccccc21)N1CCN(C)CC1` (stereo not drawn) [Compound 62, 2-(4-methylpiperazin-1-yl)-1-(4-phenyl-3,4-dihydroquinoxaline-1(2H)-yl)propan-1-one] yielded an inhibition at 10 µM of less than 50%. `CC(C(=O)N1CCN(c2ccccc2)c2ccccc21)N1CCN2CCCC2C1` (stereo not drawn) [Compound 64, 2-(hexahydropyrrolo[1,2-a]pyrazin-2(1H)-yl)-1-(4-phenyl-3,4-dihydroquinoxaline-1(2H)-yl)propan-1-one] gave an inhibition at 10 µM of less than 50%. In the case of `CC(NC1CCN(C)C1)C(=O)N1CCN(c2ccccc2)c2ccccc21` (stereo not drawn) [Compound 65, 2-((1-methylpyrrolidin-3-yl)amino)-1-(4-phenyl-3,4-dihydroquinoxaline-1(2H)-yl)propan-1-one], the inhibition at 10 µM was less than 50%. In the case of `C[C@@H]1CCCCN1C(=O)CN1CCN(c2ccccc2)c2ccccc21` [Compound 70, (R)-1-(2-methylpiperidin-1-yl)-2-(4-phenyl-3,4-dihydroquinoxaline-1(2H)-yl)ethan-1-one], the inhibition at 10 µM was 50 to 70%. For `C[C@H]1CCCCN1C(=O)CN1CCN(c2ccccc2)c2ccccc21` [Compound 71, (S)-1-(2-methylpiperidin-1-yl)-2-(4-phenyl-3,4-dihydroquinoxaline-1(2H)-yl)ethan-1-one], the inhibition at 10 µM was less than 50%. `CN1CCN(C(=O)CN2CCN(c3ccccc3)c3ccccc32)CC1` [Compound 73, 1-(4-methylpiperazin-1-yl)-2-(4-phenyl-3,4-dihydroquinoxaline-1(2H)-yl)ethan-1-one] gave an inhibition at 10 µM of 50 to 70%. In the case of `O=C(CN1CCN(c2ccccc2)c2ccccc21)N1CCN2CCCC2C1` (stereo not drawn) [Compound 75], the inhibition at 10 µM was 50 to 70%. For `O=C(CN1CCN(c2ccccc2)c2ccccc21)N1CCN(C2CC2)CC1` [Compound 76, 1-(4-cyclopropylpiperazin-1-yl)-2-(4-phenyl-3,4-dihydroquinoxaline-1(2H)-yl)ethan-1-one], the inhibition at 10 µM was less than 50%. `O=C(CN1CCN(c2ccccc2)c2ccccc21)N1CCCC(O)C1` (stereo not drawn) [Compound 77, 1-(3-hydroxypiperidin-1-yl)-2-(4-phenyl-3,4-dihydroquinoxaline-1(2H)-yl)ethan-1-one] gave an inhibition at 10 µM of less than 50%. `O=C(CCN1CCCC1)N1CCN(Cc2ccccc2)c2ccccc21` [Compound 78, 1-(4-benzyl-3,4-dihydroquinoxaline-1(2H)-yl)-3-(pyrrolidin-1-yl)propan-1-one] showed an inhibition at 10 µM of 50 to 70%. `O=C(CCN1CCCCC1)N1CCN(Cc2ccccc2)c2ccccc21` [Compound 79, 1-(4-benzyl-3,4-dihydroquinoxaline-1(2H)-yl)-3-(piperidin-1-yl)propan-1-one] showed an inhibition at 10 µM of less than 50%. In the case of `CN1CCN(CCC(=O)N2CCN(Cc3ccccc3)c3ccccc32)CC1` [Compound 80, 1-(4-benzyl-3,4-dihydroquinoxaline-1(2H)-yl)-3-(4-methylpiperazin-1-yl)propan-1-one], the inhibition at 10 µM was 50 to 70%. Compound `CC(C(=O)N1CCN(Cc2ccccc2)c2ccccc21)N1CCCCC1` (stereo not drawn) [Compound 82, 1-(4-benzyl-3,4-dihydroquinoxaline-1(2H)-yl)-2-(piperidin-1-yl)propan-1-one] has an inhibition at 10 µM of less than 50%. With `CC(C(=O)N1CCN(Cc2ccccc2)c2ccccc21)N1CCN(C)CC1` (stereo not drawn) [Compound 83, 1-(4-benzyl-3,4-dihydroquinoxaline-1(2H)-yl)-2-(4-methylpiperazin-1-yl)propan-1-one] the inhibition at 10 µM was 50 to 70%. `O=C(CN1CCCCC1)N1CCN(Cc2ccccc2)c2ccccc21` [Compound 85, 1-(4-benzyl-3,4-dihydroquinoxaline-1(2H)-yl)-2-(piperidin-1-yl)ethan-1-one] gave an inhibition at 10 µM of less than 50%. In the case of `O=C(CCN1CCCCC1)N1CCN(Cc2ccccc2Cl)c2ccccc21` [Compound 88, 1-(4-(2-chlorobenzyl)-3,4-dihydroquinoxaline-1(2H)-yl)-3-(piperidin-1-yl)propan-1-one], the inhibition at 10 µM was less than 50%. `CN1CCN(CCC(=O)N2CCN(Cc3ccccc3Cl)c3ccccc32)CC1` [Compound 89, 1-(4-(2-chlorobenzyl)-3,4-dihydroquinoxaline-1(2H)-yl)-3-(4-methylpiperazin-1-yl)propan-1-one] was tested, and the inhibition at 10 µM was 50 to 70%. `O=C(CN1CCCCC1)N1CCN(Cc2ccccc2Cl)c2ccccc21` [Compound 94, 1-(4-(2-chlorobenzyl)-3,4-dihydroquinoxaline-1(2H)-yl)-2-(piperidin-1-yl)ethan-1-one] was tested, and the inhibition at 10 µM was 50 to 70%. In the case of `CN1CCN(CC(=O)N2CCN(Cc3ccccc3Cl)c3ccccc32)CC1` [Compound 95, 1-(4-(2-chlorobenzyl)-3,4-dihydroquinoxaline-1(2H)-yl)-2-(4-methylpiperazin-1-yl)ethan-1-one], the inhibition at 10 µM was 50 to 70%. `CN1CCN(CCC(=O)N2CCN(Cc3cccc(Cl)c3)c3ccccc32)CC1` [Compound 98, 1-(4-(3-chlorobenzyl)-3,4-dihydroquinoxaline-1(2H)-yl)-3-(4-methylpiperazin-1-yl)propan-1-one] showed an inhibition at 10 µM of less than 50%. Compound `CC(C(=O)N1CCN(Cc2cccc(Cl)c2)c2ccccc21)N1CCCCC1` (stereo not drawn) [Compound 100, 1-(4-(3-chlorobenzyl)-3,4-dihydroquinoxaline-1(2H)-yl)-2-(piperidin-1-yl)propan-1-one] has an inhibition at 10 µM of no less than 70%. For `CC(C(=O)N1CCN(Cc2cccc(Cl)c2)c2ccccc21)N1CCN(C)CC1` (stereo not drawn) [Compound 101, 1-(4-(3-chlorobenzyl)-3,4-dihydroquinoxaline-1(2H)-yl)-2-(4-methylpiperazin-1-yl)propan-1-one], the inhibition at 10 µM was 50 to 70%. Compound `O=C(CN1CCCC1)N1CCN(Cc2cccc(Cl)c2)c2ccccc21` [Compound 102, 1-(4-(3-chlorobenzyl)-3,4-dihydroquinoxaline-1(2H)-yl)-2-(pyrrolidin-1-yl)ethan-1-one] has an inhibition at 10 µM of less than 50%. `O=C(CN1CCCCC1)N1CCN(Cc2cccc(Cl)c2)c2ccccc21` [Compound 103, 1-(4-(3-chlorobenzyl)-3,4-dihydroquinoxaline-1(2H)-yl)-2-(piperidin-1-yl)ethan-1-one] gave an inhibition at 10 µM of 50 to 70%. In the case of `CN1CCN(CC(=O)N2CCN(Cc3cccc(Cl)c3)c3ccccc32)CC1` [Compound 104, 1-(4-(3-chlorobenzyl)-3,4-dihydroquinoxaline-1(2H)-yl)-2-(4-methylpiperazin-1-yl)ethan-1-one], the inhibition at 10 µM was no less than 70%. Work on `CC(C(=O)N1CCN(Cc2ccc(Cl)cc2)c2ccccc21)N1CCN(C)CC1` (stereo not drawn) [Compound 110, 1-(4-(4-chlorobenzyl)-3,4-dihydroquinoxaline-1(2H)-yl)-2-(4-methylpiperazin-1-yl)propan-1-one] yielded an inhibition at 10 µM of 50 to 70%. Work on `O=C(CCN1CCCC1)N1CCN(Cc2ccccn2)c2ccccc21` [Compound 114, 1-(4-(pyridin-2-ylmethyl)-3,4-dihydroquinoxaline-1(2H)-yl)-3-(pyrrolidin-1-yl)propan-1-one di-oxalate] yielded an inhibition at 10 µM of 50 to 70%. In the case of `O=C(CCN1CCCCC1)N1CCN(Cc2ccccn2)c2ccccc21` [Compound 115, 3-(piperidin-1-yl)-1-(4-(pyridin-2-ylmethyl)-3,4-dihydroquinoxaline-1(2H)-yl)propan-1-one], the inhibition at 10 µM was less than 50%. With `O=C(CN1CCCC1)N1CCN(Cc2ccccn2)c2ccccc21` [Compound 117, 1-(4-(pyridin-2-ylmethyl)-3,4-dihydroquinoxaline-1(2H)-yl)-2-(pyrrolidin-1-yl)ethan-1-one] the inhibition at 10 µM was less than 50%. For `CN1CCN(CC(=O)N2CCN(Cc3ccccn3)c3ccccc32)CC1` [Compound 118, 2-(4-methylpiperazin-1-yl)-1-(4-(pyridin-2-ylmethyl)-3,4-dihydroquinoxaline-1(2H)-yl)ethan-1-one], the inhibition at 10 µM was less than 50%. `CN1CCN(CCC(=O)N2CCN(Cc3cccnc3)c3ccccc32)CC1` [Compound 121, 3-(4-methylpiperazin-1-yl)-1-(4-(pyridin-3-ylmethyl)-3,4-dihydroquinoxaline-1(2H)-yl)propan-1-one] showed an inhibition at 10 µM of less than 50%. `O=C(CCN1CCCC1)N1CCN(Cc2ccncc2)c2ccccc21` [Compound 122, 1-(4-(pyridin-4-ylmethyl)-3,4-dihydroquinoxaline-1(2H)-yl)-3-(pyrrolidin-1-yl)propan-1-one] was tested, and the inhibition at 10 µM was 50 to 70%.
